Several values for one entry are separate records, joined by “and”; a condition that tells them apart may be missing. Equal values may be shown once.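 All cell lines were grown in 96-well plates and treated with compound for 48 hours. At the GI50, growth is halved. TGI is the concentration that stops growth completely.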
Columns and labels:
Experiment in all cases: inhibition of tumour cell growth, NCI panel, 48 h
[1] = test system: HCC-2998 colon
[2] = test system: SF-539 CNS
[3] = test system: LOX IMVI melanoma
[4] = test system: IGROV1 ovarian
[5] = test system: HCT-116 colon
[6] = test system: UACC-62 melanoma
[7] = test system: SK-MEL-28 melanoma
[8] = test system: CCRF-CEM leukemia
[9] = test system: CAKI-1 renal
[10] = test system: SN12C renal
[11] = test system: T-47D breast
[12] = test system: OVCAR-8 ovarian
[13] = test system: HCT-15 colon
[14] = test system: OVCAR-3 ovarian
[15] = test system: MDA-N

In the case of `COc1ccc2c(c1)c1c(C)c3cnccc3c(C)c1n2CCCN`, the GI50 [1] is reported as 75.3 nM, the TGI [1] is reported as 1200 nM and 225 nM and the GI50 [2] is reported as 175 nM. The TGI [2] was 855 nM and 421 nM, the TGI [3] was 241 nM and the GI50 [4] was 136 nM. For the same compound, the TGI [4] was 1320 nM and 1180 nM, the GI50 [5] was 65.9 nM and the TGI [5] was 303 nM and 1060 nM. The GI50 [6] was 263 nM, the TGI [6] was 950 nM and 778 nM and the TGI [7] was 892 nM and 1100 nM. For the same compound, the GI50 [8] was 47.2 nM and < 10 nM, the GI50 [9] was 130 nM and 164 nM and the TGI [9] was 491 nM and 806 nM. For the same compound, the GI50 [10] was 170 nM, the TGI [10] was 916 nM and 1010 nM and the TGI [11] was 760 nM. For the same compound, the GI50 [12] was 105 nM, the TGI [12] was 741 nM and 892 nM and the GI50 [13] was 62.4 nM. For the same compound, the TGI [13] was 473 nM and 955 nM, the GI50 [14] was 119 nM and the TGI [14] was 1180 nM and 495 nM. The TGI [15] was 306 nM.
